Reference: ChEMBL document CHEMBL5154675, “Design, Synthesis, and Biological Evaluation of 1-(Indolizin-3-yl)ethan-1-ones as CBP Bromodomain Inhibitors for the Treatment of Prostate Cancer” (J Med Chem, 2022)

What was measured:
[1] = AUC (0 to infinity) in Sprague-Dawley rat at 25 mg/kg, po measured up to 24 hrs; type: ADME, organism-based; parameters: time < 24 hrs, dose 25 mg/kg, route po; conditions: in vivo
CREB-binding protein [2] = biological target: T1, CREB-binding protein (Homo sapiens, UniProt Q92793); assay: Inhibition of His6-tagged human CBP bromodomain (1081 to 1197 residues) expressed in Escherichia coli BL21 (DE3) incubated for 30 mins by HTRF assay
LNCaP C4-2B = assay: Antiproliferative activity against human LNCaP C4-2B cells assessed as inhibition of cell growth by Celltiter-Glo assay; type: functional, cell-based
[3] = AUC (0 to infinity) in Sprague-Dawley rat at 5 mg/kg, iv administered as single dose measured up to 24 hrs; type: ADME, organism-based; parameters: time < 24 hrs, dose 5 mg/kg, route iv; conditions: in vivo
[4] = Cmax in Sprague-Dawley rat at 25 mg/kg, po measured up to 24 hrs; type: ADME, organism-based; parameters: dose 25 mg/kg, time < 24 hrs, route po; conditions: in vivo
[5] = Cmax in Sprague-Dawley rat at 5 mg/kg, iv administered as single dose measured up to 24 hrs; type: ADME, organism-based; parameters: time < 24 hrs, dose 5 mg/kg, route iv; conditions: in vivo
[6] = Clearance in Sprague-Dawley rat at 5 mg/kg, iv administered as single dose measured up to 24 hrs; type: ADME, organism-based; conditions: Sprague-Dawley, in vivo
[7] = Half life in Sprague-Dawley rat at 25 mg/kg, po measured up to 24 hrs; type: ADME, organism-based; conditions: in vivo
[8] = Half life in Sprague-Dawley rat at 5 mg/kg, iv administered as single dose measured up to 24 hrs; type: ADME, organism-based; conditions: in vivo
[9] = Oral bioavailability in Sprague-Dawley rat at 25 mg/kg measured up to 24 hrs; type: ADME, organism-based; conditions: in vivo
LNCaP = assay: Antiproliferative activity against human LNCaP cells assessed as cell growth inhibition by Celltiter-Glo assay; type: functional, cell-based
CWR22R = assay: Antiproliferative activity against human 22Rv1 cells assessed as cell growth inhibition by Celltiter-Glo assay; type: functional, cell-based
CREB-binding protein [10] = biological target: T1, CREB-binding protein; conditions: dose 200.0 µM, time 30.0 min
[11] = biological target: Histone acetyltransferase p300 (Homo sapiens) (UniProt Q09472); conditions: dose 200.0 µM, time 30.0 min
[12] = biological target: PH-interacting protein (Homo sapiens) (UniProt Q8WWQ0); conditions: dose 200.0 µM, time 30.0 min
[13] = biological target: Chromatin remodeling regulator CECR2 (Homo sapiens) (UniProt Q9BXF3); conditions: dose 200.0 µM, time 30.0 min
Chain of Chromatin remodeling regulator CECR2 (Homo sapiens) (Q9BXF3 whole entry, looked up, the tested form may be a part): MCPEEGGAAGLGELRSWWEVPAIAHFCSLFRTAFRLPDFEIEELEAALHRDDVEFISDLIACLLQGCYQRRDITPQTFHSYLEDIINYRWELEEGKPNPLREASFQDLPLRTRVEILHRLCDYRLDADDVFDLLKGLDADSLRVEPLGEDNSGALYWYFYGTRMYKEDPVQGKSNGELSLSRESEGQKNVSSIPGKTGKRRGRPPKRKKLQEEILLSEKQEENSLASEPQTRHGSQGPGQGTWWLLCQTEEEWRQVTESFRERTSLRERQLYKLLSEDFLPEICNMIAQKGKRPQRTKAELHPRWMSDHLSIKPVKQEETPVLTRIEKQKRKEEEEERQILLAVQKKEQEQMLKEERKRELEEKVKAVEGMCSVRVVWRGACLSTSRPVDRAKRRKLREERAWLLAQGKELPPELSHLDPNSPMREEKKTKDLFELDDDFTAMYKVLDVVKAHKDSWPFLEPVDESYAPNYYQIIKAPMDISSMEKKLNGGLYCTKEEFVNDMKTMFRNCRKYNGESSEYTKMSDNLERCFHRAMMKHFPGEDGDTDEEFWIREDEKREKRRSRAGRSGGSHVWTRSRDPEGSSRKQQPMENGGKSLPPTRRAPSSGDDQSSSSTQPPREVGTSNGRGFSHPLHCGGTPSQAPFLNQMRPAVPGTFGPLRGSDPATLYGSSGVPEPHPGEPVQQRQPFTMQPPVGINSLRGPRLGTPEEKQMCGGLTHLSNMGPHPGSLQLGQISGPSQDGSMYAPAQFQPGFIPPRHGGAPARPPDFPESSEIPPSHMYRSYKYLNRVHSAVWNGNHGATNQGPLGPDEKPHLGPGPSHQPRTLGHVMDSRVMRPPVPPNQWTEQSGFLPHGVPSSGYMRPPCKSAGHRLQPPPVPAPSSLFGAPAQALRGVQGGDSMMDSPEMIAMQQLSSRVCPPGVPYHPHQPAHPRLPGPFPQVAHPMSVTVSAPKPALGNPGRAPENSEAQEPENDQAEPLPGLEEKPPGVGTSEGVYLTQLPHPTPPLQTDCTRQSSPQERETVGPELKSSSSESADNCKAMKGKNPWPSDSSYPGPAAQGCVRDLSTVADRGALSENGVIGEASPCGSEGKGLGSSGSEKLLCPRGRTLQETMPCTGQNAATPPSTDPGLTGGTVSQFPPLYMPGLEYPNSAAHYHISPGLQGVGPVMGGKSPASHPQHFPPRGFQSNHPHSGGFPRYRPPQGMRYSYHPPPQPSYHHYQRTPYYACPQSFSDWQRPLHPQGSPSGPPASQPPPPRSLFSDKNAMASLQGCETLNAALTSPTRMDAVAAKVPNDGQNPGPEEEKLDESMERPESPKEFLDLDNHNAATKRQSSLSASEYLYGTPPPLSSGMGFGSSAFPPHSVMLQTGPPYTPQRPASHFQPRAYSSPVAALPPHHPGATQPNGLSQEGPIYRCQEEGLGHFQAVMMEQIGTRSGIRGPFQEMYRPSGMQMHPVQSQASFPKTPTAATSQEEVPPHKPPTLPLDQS

[14] = biological target: Bromodomain adjacent to zinc finger domain protein 2B (Homo sapiens) (UniProt Q9UIF8); conditions: dose 200.0 µM, time 30.0 min
[15] = biological target: Histone acetyltransferase KAT2B (Homo sapiens) (UniProt Q92831); conditions: dose 200.0 µM, time 30.0 min
[16] = biological target: T2, Bromodomain-containing protein 4 (Homo sapiens, UniProt O60885); conditions: dose 200.0 µM, time 30.0 min
[17] = biological target: T2, Bromodomain-containing protein 4; conditions: dose 200.0 µM, time 30.0 min; remark: listed apart in the source
[18] = biological target: T3, Bromodomain-containing protein 3 (Homo sapiens, UniProt Q15059); conditions: dose 200.0 µM, time 30.0 min
T3 sequence (Q15059 2-726 limits assumed): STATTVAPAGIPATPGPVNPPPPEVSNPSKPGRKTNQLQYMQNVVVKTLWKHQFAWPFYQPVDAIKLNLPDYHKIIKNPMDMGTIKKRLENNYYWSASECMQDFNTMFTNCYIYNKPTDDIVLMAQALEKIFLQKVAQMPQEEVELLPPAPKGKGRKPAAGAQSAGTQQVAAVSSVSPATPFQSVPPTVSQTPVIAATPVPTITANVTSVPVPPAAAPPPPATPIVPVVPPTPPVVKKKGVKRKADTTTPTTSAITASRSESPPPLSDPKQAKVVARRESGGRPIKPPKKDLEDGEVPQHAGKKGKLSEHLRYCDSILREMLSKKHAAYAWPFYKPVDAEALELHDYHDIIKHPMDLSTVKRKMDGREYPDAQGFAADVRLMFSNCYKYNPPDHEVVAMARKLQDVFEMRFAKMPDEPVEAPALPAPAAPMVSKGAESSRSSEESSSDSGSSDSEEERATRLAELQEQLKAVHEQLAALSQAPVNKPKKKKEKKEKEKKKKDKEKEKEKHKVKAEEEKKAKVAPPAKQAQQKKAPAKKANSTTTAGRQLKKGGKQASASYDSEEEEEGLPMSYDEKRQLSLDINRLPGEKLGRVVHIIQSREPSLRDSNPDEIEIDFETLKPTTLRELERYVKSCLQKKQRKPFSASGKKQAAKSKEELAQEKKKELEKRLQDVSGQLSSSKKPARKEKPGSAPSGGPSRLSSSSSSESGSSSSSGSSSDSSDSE

[19] = biological target: T3, Bromodomain-containing protein 3; conditions: dose 200.0 µM, time 30.0 min; remark: listed apart in the source
[20] = biological target: T4, Bromodomain-containing protein 2 (Homo sapiens, UniProt P25440); conditions: dose 200.0 µM, time 30.0 min
T4 sequence (P25440 whole entry, looked up): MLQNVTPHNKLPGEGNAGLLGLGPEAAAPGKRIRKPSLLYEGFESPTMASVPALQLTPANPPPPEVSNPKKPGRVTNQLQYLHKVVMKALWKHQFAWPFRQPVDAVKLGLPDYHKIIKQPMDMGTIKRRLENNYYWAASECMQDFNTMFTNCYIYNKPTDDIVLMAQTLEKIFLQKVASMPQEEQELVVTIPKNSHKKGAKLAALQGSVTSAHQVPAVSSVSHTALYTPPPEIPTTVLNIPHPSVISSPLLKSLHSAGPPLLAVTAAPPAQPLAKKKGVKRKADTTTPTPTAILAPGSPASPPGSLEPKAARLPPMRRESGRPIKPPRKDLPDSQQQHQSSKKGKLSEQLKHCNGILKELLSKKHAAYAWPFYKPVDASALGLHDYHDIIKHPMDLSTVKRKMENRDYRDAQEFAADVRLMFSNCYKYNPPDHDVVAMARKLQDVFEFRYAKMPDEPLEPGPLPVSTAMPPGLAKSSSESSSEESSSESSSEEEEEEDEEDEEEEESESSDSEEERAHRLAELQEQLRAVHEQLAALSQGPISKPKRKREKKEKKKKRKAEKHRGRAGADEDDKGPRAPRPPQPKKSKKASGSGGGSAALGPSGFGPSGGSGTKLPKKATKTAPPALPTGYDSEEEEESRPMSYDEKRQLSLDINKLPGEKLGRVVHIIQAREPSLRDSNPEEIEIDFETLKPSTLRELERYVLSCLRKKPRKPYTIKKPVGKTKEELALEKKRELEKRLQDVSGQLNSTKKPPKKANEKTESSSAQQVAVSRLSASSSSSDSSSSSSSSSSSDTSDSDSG

[21] = biological target: T4, Bromodomain-containing protein 2; conditions: dose 200.0 µM, time 30.0 min; remark: listed apart in the source
[22] = biological target: T5, Bromodomain testis-specific protein (Homo sapiens, UniProt Q58F21); conditions: dose 200.0 µM, time 30.0 min
[23] = biological target: T5, Bromodomain testis-specific protein; conditions: dose 200.0 µM, time 30.0 min; remark: listed apart in the source
[24] = biological target: SWI/SNF-related matrix-associated actin-dependent regulator of chromatin subfamily A member 2 (Homo sapiens) (UniProt P51531); conditions: dose 200.0 µM, time 30.0 min
Chain of SWI/SNF-related matrix-associated actin-dependent regulator of chromatin subfamily A member 2 (Homo sapiens) (P51531 whole entry): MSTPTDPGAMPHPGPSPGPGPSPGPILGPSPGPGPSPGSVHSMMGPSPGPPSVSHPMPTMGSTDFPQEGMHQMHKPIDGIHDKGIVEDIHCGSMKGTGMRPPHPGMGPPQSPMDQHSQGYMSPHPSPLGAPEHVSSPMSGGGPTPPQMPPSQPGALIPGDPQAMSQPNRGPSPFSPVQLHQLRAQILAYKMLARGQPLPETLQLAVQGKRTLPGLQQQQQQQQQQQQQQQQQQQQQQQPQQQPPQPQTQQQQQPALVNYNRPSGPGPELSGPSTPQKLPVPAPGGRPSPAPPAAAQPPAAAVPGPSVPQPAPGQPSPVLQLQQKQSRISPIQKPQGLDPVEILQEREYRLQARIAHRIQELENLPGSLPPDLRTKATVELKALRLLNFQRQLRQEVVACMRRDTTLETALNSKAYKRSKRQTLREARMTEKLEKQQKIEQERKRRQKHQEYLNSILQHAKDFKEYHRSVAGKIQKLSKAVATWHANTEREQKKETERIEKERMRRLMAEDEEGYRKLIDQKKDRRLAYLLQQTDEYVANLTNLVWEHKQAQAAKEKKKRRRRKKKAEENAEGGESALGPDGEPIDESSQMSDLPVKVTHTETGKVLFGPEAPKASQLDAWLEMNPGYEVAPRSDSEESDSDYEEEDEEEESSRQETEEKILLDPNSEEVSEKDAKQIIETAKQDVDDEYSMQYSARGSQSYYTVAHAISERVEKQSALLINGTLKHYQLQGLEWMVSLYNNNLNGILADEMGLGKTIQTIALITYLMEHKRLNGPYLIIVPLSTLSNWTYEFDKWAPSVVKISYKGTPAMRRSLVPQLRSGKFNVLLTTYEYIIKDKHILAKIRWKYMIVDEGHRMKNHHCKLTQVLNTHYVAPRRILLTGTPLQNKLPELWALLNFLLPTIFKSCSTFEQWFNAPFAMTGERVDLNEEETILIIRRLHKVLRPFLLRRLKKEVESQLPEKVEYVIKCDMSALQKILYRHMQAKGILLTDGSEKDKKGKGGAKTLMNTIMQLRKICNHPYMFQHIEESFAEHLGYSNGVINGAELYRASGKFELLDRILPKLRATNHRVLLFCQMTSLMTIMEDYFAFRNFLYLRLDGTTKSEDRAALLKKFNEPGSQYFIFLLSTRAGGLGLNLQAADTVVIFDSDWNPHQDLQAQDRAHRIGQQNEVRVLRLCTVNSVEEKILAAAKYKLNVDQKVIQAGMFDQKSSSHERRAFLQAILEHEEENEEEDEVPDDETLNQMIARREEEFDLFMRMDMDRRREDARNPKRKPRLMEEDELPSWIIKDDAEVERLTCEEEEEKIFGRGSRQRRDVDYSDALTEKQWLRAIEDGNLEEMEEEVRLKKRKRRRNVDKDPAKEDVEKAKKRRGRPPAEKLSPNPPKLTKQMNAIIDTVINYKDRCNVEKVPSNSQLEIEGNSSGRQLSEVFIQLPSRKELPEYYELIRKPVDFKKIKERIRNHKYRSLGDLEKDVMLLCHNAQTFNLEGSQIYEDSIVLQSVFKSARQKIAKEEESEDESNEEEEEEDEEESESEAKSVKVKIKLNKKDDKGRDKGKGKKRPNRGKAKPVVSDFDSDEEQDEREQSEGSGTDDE

[25] = biological target: T6, Bromodomain-containing protein 9 (Homo sapiens) (UniProt Q9H8M2); conditions: dose 200.0 µM, time 30.0 min
T6 sequence (whole entry): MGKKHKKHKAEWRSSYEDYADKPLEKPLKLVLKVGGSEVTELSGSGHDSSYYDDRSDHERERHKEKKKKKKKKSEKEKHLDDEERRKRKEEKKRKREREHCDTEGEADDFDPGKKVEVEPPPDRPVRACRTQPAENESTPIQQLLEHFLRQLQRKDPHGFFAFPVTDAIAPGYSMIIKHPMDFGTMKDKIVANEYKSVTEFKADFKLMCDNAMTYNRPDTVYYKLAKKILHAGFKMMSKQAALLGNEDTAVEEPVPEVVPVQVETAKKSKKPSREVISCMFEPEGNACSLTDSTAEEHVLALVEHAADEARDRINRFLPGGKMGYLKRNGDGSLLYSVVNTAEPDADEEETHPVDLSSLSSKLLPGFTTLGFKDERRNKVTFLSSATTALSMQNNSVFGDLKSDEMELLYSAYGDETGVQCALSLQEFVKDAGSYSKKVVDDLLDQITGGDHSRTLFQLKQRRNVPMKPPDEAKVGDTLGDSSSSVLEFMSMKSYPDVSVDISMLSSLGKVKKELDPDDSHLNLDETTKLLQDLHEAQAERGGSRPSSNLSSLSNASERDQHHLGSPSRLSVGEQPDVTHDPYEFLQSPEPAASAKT

[26] = Metabolic stability in rat liver microsomes assessed as parent compound remaining at 1 uM incubated for 45 mins in presence of NADPH by LC-MS/MS analysis; type: ADME, Microsome; conditions: read-out: Stability
[27] = Metabolic stability in human liver microsomes assessed as parent compound remaining at 1 uM incubated for 45 mins in presence of NADPH by LC-MS/MS analysis; type: ADME, Microsome; conditions: read-out: Stability
[28] = Half life in rat liver microsomes at 1 uM incubated for 45 mins in presence of NADPH by LC-MS/MS analysis; type: ADME, Microsome
[29] = Half life in human liver microsomes at 1 uM incubated for 45 mins in presence of NADPH by LC-MS/MS analysis; type: ADME, Microsome
[30] = Intrinsic clearance in rat liver microsomes at 1 uM incubated for 45 mins in presence of NADPH by LC-MS/MS analysis; type: ADME, Microsome; conditions: read-out: CLH
[31] = Intrinsic clearance in human liver microsomes at 1 uM incubated for 45 mins in presence of NADPH by LC-MS/MS analysis; type: ADME, Microsome; conditions: read-out: CLH
[32] = Hepatic clearance in human liver microsomes at 1 uM incubated for 45 mins in presence of NADPH by LC-MS/MS analysis; type: ADME, Microsome; conditions: read-out: CLH
[33] = Hepatic clearance in rat liver microsomes at 1 uM incubated for 45 mins in presence of NADPH by LC-MS/MS analysis; type: ADME, Microsome
[34] = Hepatic extraction ratio in human liver microsomes at 1 uM incubated for 45 mins in presence of NADPH by LC-MS/MS analysis; type: ADME, Microsome; conditions: read-out: ERH
[35] = Apparent permeability across apical to basolateral side in human Caco-2 cells at 10 uM measured after 2 hrs by LC-MS/MS analysis; type: ADME, cell-based
[36] = Apparent permeability across basolateral to apical side in human Caco-2 cells at 10 uM measured after 2 hrs by LC-MS/MS analysis; type: ADME, cell-based
[37] = Efflux ratio of apparent permeability across basolateral to apical side over apical to basolateral side in human Caco-2 cells at 10 uM measured after 2 hrs by LC-MS/MS analysis; type: ADME, cell-based
[38] = Apparent permeability across apical to basolateral side in human Caco-2 cells assessed as drug recovery at 10 uM measured after 2 hrs by LC-MS/MS analysis; type: ADME, cell-based; conditions: read-out: Drug recovery
[39] = Apparent permeability across basolateral to apical side in human Caco-2 cells assessed as drug recovery at 10 uM measured after 2 hrs by LC-MS/MS analysis; type: ADME, cell-based; conditions: read-out: Drug recovery
in vitro = conditions: rat, liver microsomes
Description: Hepatic extraction ratio in rat liver microsomes at 1 uM incubated for 45 mins in presence of NADPH by LC-MS/MS analysis

With `CC(=O)c1cc(C(=O)Nc2cc(C(C)O)cc(-c3cnn(C4CC4)c3)c2F)c2cc(N)ccn12` (stereo not given) the AUC(0-inf) [1] was 29.4 ng·h/mL, the IC50 (CREB-binding protein [2]) was 1.48 nM and the IC50 (LNCaP C4-2B) was 2970 nM. It also gave an AUC(0-inf) ([3]; Sprague-Dawley) of 796 ng·h/mL, a Cmax [4] of 46.8 ng/mL and a Cmax [5] of 2680 ng/mL. It also gave a clearance [6] of 107 mL/min/kg, a half-life [7] of 1.97 h and a half-life ([8]; Sprague-Dawley) of 1.32 h. For the same compound, the bioavailability [9] was 0.68%, the IC50 (LNCaP) was 440 nM and the IC50 (CWR22R) was 2930 nM. The ΔTm (CREB-binding protein [10]) was 14 °C, the ΔTm [11] was 14.5 °C and the ΔTm [12] was -0.3 °C. For the same compound, the ΔTm [13] was -0.2 °C, the ΔTm [14] was -0.2 °C and the ΔTm [15] was -0.3 °C. It also gave a ΔTm [16] of -0.6 °C, a ΔTm [17] of 0 °C and a ΔTm [18] of 0.5 °C. It also gave a ΔTm [19] of 0 °C, a ΔTm [20] of -0.8 °C and a ΔTm [21] of 1.3 °C. The ΔTm [22] was 1.5 °C, the ΔTm [23] was 0 °C and the ΔTm [24] was -0.3 °C. For the same compound, the ΔTm [25] was 5.3 °C.
Work on `CC(=O)c1cc(C(=O)Nc2cc(CO)cc(-c3cnn(C4CC4)c3)c2F)c2cc(OC(=O)N(C)C)ccn12` yielded an AUC(0-inf) [1] of 9450 ng·h/mL, an IC50 (CREB-binding protein [2]) of 21.3 nM and an IC50 (LNCaP C4-2B) greater than 5000 nM. The AUC ([3]; 24 h) was 29943.87 ng·h/mL, the Cmax [4] was 2040 ng/mL and the clearance [6] was 2.83 mL/min/kg. The half-life [7] was 3.24 h, the t1/2 ([8]; iv, 5 mg/kg, 24 h) was 1.6 h and the bioavailability [9] was 6.18%. The remaining at 0.75 h, 1 µM [26] was 44.7%, the remaining at 0.75 h, 1 µM [27] was 16.9% and the half-life at 1 µM [28] was 0.654 h. For the same compound, the half-life at 1 µM [29] was 0.295 h, the CLint scaled at 1 µM [30] was 63.3 mL/min/kg and the CLint scaled at 1 µM [31] was 98.2 mL/min/kg. The CLint scaled at 1 µM [32] was 35.3 mL/min/kg, the CLhep predicted at 1 µM [33] was 15.6 mL/min/kg and the hepatic extraction ratio at 0.75 h, 1 µM [34] was 0.64. For the same compound, the Papp A→B at 2 h, 10 µM [35] was 0.2 ×10⁻⁶ cm/s, the Papp B→A at 2 h, 10 µM [36] was 2.89 ×10⁻⁶ cm/s and the efflux ratio at 2 h, 10 µM [37] was 14.2. For the same compound, the recovery at 2 h, 10 µM [38] was 107%, the recovery at 2 h, 10 µM [39] was 95.8% and the IC50 (LNCaP) was 360 nM. The IC50 (CWR22R) was greater than 5000 nM, the ΔTm (CREB-binding protein [10]) was 11.5 °C and the ΔTm [11] was 11.8 °C. For the same compound, the ΔTm [12] was 0 °C, the ΔTm [13] was -0.2 °C and the ΔTm [14] was -0.2 °C. The ΔTm [15] was -0.6 °C, the ΔTm [16] was 0.5 °C and the ΔTm [17] was -1.5 °C. The ΔTm [18] was 0 °C, the ΔTm [19] was -1 °C and the ΔTm [20] was -0.3 °C. For the same compound, the ΔTm [21] was 0 °C, the ΔTm [22] was -0.5 °C and the ΔTm [23] was -3 °C. For the same compound, the ΔTm [24] was -0.3 °C, the ΔTm [25] was 1.5 °C and the hepatic extraction ratio at 0.75 h, 1 µM (in vitro) was 0.753.
